From patent US7541477B2, “Antagonists to melanin-concentrating hormone receptor comprising benzimidazole derivative as active ingredient” (Banyu Pharmaceutical Co., Ltd., priority 2002, dated 2009)
Structures can show the parent of a compound that is named as a salt.

Molecular target: T1, human MCH-1R (Homo sapiens, UniProt Q99705)
T1 construct: expressed in transfected cells; host or cells: CHO-K1 (American Type Culture Collection), membrane preparation
Test: MCH binding inhibition assay ([125I]MCH, membranes of CHO-K1 cells expressing MCH-1R)
Details: 50 pM [125I]MCH, 25° C., 1 hour; read-out: 50% Inhibitory Concentration against MCH-Binding, IC50
Method: cDNA sequence encoding human MCH-1R [FEBS Letters, 398:253(1996), Biochimica et Biophisica Acta, 1401: 216(1998)] was cloned into plasmid vector pEF/mic/cyto (Invitrogen). The expression vector so obtained was transfected into host cells CHO-K1 (American Type Culture Collection) by using Lipofectamine Plus Reagent (Life Technologies) to give MCH-1R expressing cells.
Membrane preparation generated from the cells expressing MCH-1R was incubated together with a test compound and 50 pM [^125I]MCH (NEN) in assay buffer (50 mM Tris buffer, pH7.4, containing 10 mM magnesium chloride, 2 mM ethylenediaminetetraacetic acid, 0.01% Bacitracin and 0.2% bovine serum albumin) at 25° C. for 1 hour, then filtered through a glass filter GF/C (Whatman). After washing the glass filter with 50 mM Tris buffer, pH7.4, containing 10 mM magnesium chloride, 2 mM ethylenediaminetetraacetic acid and 0.04% Tween-20, radioactivity on the glass filter was measured. Nonspecific binding was measured in the presence of 1 μM human MCH and a 50% inhibitory concentration (IC50) of the test compound against specific [^125I]MCH-binding was determined.

T1 sequence (Q99705 whole entry): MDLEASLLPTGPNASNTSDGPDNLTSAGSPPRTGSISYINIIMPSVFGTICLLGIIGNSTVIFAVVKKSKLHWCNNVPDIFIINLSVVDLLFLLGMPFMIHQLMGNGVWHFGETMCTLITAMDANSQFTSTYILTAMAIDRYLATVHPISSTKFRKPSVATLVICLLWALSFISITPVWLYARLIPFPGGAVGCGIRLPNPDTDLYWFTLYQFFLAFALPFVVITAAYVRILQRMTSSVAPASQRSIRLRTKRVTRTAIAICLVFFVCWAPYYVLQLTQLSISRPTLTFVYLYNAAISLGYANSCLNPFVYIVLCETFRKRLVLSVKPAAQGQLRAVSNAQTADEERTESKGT

IC50 | Structure (SMILES)
6.2 nM | COc1ccc(-c2ccc(C(=O)Nc3ccc4nc(N(C)C(C)C)[nH]c4c3)cc2)cn1 [Example 17, N-{2-[isopropyl(methyl)amino]-1H-benzimidazol-6-yl}-4-(6-methoxy-3-pyridinyl)benzamide]
3.3 nM | CC(C)N(C)c1nc2ccc(NC(=O)c3cnc(-c4ccc(F)cc4)cn3)cc2[nH]1 [Example 24, 5-(4-Fluorophenyl)-N-{2-[isopropyl(methyl)amino]-1H-benzimidazol-6-yl}-2-pyrazinecarboxamide hydrochloride]
5.8 nM | CC(C)N(C)c1nc2ccc(NC(=O)CCc3ccc(C(F)(F)F)cc3)cc2[nH]1 [Example 1, N-{2-[isopropyl(methyl)amino]-1H-benzimidazol-6-yl}-3-[4-(trifluoromethyl)phenyl]propanamide]
